Data: patent US6770442B2, “Methods for modulating the solubility of synthetic polymers” (Boston Probes, Inc., priority 1998, dated 2004)

Experiments:
[1] = Solubility of labeled PNA oligomer in aqueous buffer
[2] = UV Tm analysis of unimolecular PNA hairpins (9 bp stem duplex); format: physicochemical; conditions: for cooperativity of sigmoidal melting transition (normalized absorbance vs. temperature): each probe at [1], FIG. 11
Description: The five Tm Samples of a dilution series of a particular unimolecular probe to be analyzed were simultaneously examined using a Cary 100 Bio UV-Visible Spectrophotometer (Varian Instruments) equipped with a 6×6 thermostatable multicell block running Win UV Bio application software package. To a 10×10 UV cell (Starna Cells, P/N 21-Q-10) was added a 7.2 mm stir bar and the 2.5 mL of each sample of the dilution series. The stirring accessory was used during all analysis. All samples were thermally denatured and reannealed prior to data collection by having the instrument rapidly ramp the temperature to a point above the melting temperature and then holding that temperature for 5-10 minutes before returning to the starting temperature. The temperature range over which data was collected was varied in response to the expected Tm which was roughly determined during the premelt and prereannealing step. Regardless of the temperature range, the temperature ramp rate for both melting “M” and reannealing “R” was always 0.5°C./min. The absorbance (260 nm, averaged over a 3 second collection) was plotted vs. the temperature of the multicell block.
After the Tm analysis was performed in Tm Buffer, to each cell was added 0.5 μL of 5M MgCl2 to thereby prepare a sample containing 1 mM MgCl2. The dilution effect was considered to be negligible. The Tm analysis was then performed again to determine whether the presence of MgCl2 had any; effect on the Tm of the unimolecular probe.
After the Tm analysis was performed in Tm Buffer and 1 mM MgCl2, to each cell was added 42 μL of saturated NaCl (approximately 6.11 M/L). The dilution effect was again considered to be negligible. The Tm analysis was then performed again to determine whether the presence of approximately 100 mM NaCl had any effect on the Tm of the unimolecular probe.

[3] = [1] approx. 7.5 μM, Buf, Mg & Na: Tm Buffer, 1 mM MgCl2 and 100 mM NaCl
[4] = [1] approx. 7.5 μM, Buf, Mg: Tm Buffer and 1 mM MgCl2
[5] = [2] approx. 3.75 μM, Buf, Mg & Na: Tm Buffer, 1 mM MgCl2 and 100 mM NaCl
[6] = [2] approx. 3.75 μM, Buf, Mg: Tm Buffer and 1 mM MgCl2
[7] = [2] approx. 3.75 μM, Buf: Tm Buffer
[8] = [3] approx. 1.87 μM, Buf, Mg & Na: Tm Buffer, 1 mM MgCl2 and 100 mM NaCl
[9] = [3] approx. 1.87 μM, Buf, Mg: Tm Buffer and 1 mM MgCl2
[10] = [3] approx. 1.87 μM, Buf: Tm Buffer
[11] = [4] approx. 0.94 μM, Buf, Mg & Na: Tm Buffer, 1 mM MgCl2 and 100 mM NaCl
[12] = [4] approx. 0.94 μM, Buf, Mg: Tm Buffer and 1 mM MgCl2
[13] = [4] approx. 0.94 μM, Buf: Tm Buffer
[14] = [5] approx. 0.468 μM, Buf, Mg & Na: Tm Buffer, 1 mM MgCl2 and 100 mM NaCl
[15] = [5] approx. 0.468 μM, Buf, Mg: Tm Buffer and 1 mM MgCl2
[16] = [5] approx. 0.468 μM, Buf: Tm Buffer

In the case of “Flu-OEE-ATA-TAT-TGG-CTG-ATC-CAA-TAT-AT-EE-K(dabcyl)-NH2 [P4]”, the “concentration up to which completely soluble” value [1] was at least 7.5 μM/L, the “Tm, melting M” value [2, 3] was 82.6 °C and the “Tm, reannealing R” value [2, 3] was 81.8 °C. The “Tm, melting M” value [2, 4] was 81.6 °C, the “Tm, reannealing R” value [2, 4] was 81.0 °C and the “Tm, melting M” value [2, 5] was 82.6 °C. For the same substance, the “Tm, reannealing R” value [2, 5] was 82.4 °C, the “Tm, melting M” value [2, 6] was 81.6 °C and the “Tm, reannealing R” value [2, 6] was 81.5 °C. For the same substance, the “Tm, melting M” value [2, 7] was 81.6 °C, the “Tm, reannealing R” value [2, 7] was 81.4 °C and the “Tm, melting M” value [2, 8] was 82.6 °C. For the same substance, the “Tm, reannealing R” value [2, 8] was 82.5 °C, the “Tm, melting M” value [2, 9] was 82.0 °C and the “Tm, reannealing R” value [2, 9] was 81.5 °C. The “Tm, melting M” value [2, 10] was 82.1 °C, the “Tm, reannealing R” value [2, 10] was 81.5 °C and the “Tm, melting M” value [2, 11] was 82.5 °C. For the same substance, the “Tm, reannealing R” value [2, 11] was 82.5 °C, the “Tm, melting M” value [2, 12] was 82.0 °C and the “Tm, reannealing R” value [2, 12] was 81.1 °C. The “Tm, melting M” value [2, 13] was 82.0 °C, the “Tm, reannealing R” value [2, 13] was 81.5 °C and the “Tm, melting M” value [2, 14] was 83.0 °C. For the same substance, the “Tm, reannealing R” value [2, 14] was 82.1 °C, the “Tm, melting M” value [2, 15] was 82.0 °C and the “Tm, reannealing R” value [2, 15] was 81.6 °C. For the same substance, the “Tm, melting M” value [2, 16] was 81.5 °C and the “Tm, reannealing R” value [2, 16] was 81.1 °C.

In the case of “H-ATA-TAT-TGG-CTG-ATC-CAA-TAT-AT-KK-NH2 [PNAD, reference compound]”, the “Tm, melting M” value [2, 3] was 80.6 °C, the “Tm, reannealing R” value [2, 3] was 80.4 °C and the “Tm, melting M” value [2, 4] was 80.6 °C. The “Tm, reannealing R” value [2, 4] was 80.3 °C, the “Tm, melting M” value [2, 5] was 81.5 °C and the “Tm, melting M” value [2, 6] was 81.1 °C. The “Tm, reannealing R” value [2, 6] was 80.4 °C, the “Tm, melting M” value [2, 7] was 81.1 °C and the “Tm, reannealing R” value [2, 7] was 81.0 °C. The “Tm, melting M” value [2, 8] was 81.0 °C, the “Tm, reannealing R” value [2, 8] was 81.4 °C and the “Tm, melting M” value [2, 9] was 81.1 °C. For the same substance, the “Tm, reannealing R” value [2, 9] was 80.4 °C, the “Tm, melting M” value [2, 10] was 82.0 °C and the “Tm, reannealing R” value [2, 10] was 81.0 °C. For the same substance, the “Tm, melting M” value [2, 11] was 81.5 °C, the “Tm, reannealing R” value [2, 11] was 80.5 °C and the “Tm, melting M” value [2, 12] was 80.5 °C. The “Tm, reannealing R” value [2, 12] was 81.0 °C, the “Tm, melting M” value [2, 13] was 81.5 °C and the “Tm, reannealing R” value [2, 13] was 81.5 °C. For the same substance, the “Tm, melting M” value [2, 14] was 82.1 °C, the “Tm, reannealing R” value [2, 14] was 80.6 °C and the “Tm, melting M” value [2, 15] was 80.5 °C. For the same substance, the “Tm, reannealing R” value [2, 15] was 80.5 °C, the “Tm, melting M” value [2, 16] was 81.5 °C and the “Tm, reannealing R” value [2, 16] was 81.1 °C. The “cooperativity of sigmoidal melting transition (normalized absorbance vs. temperature)” value [2] was “least cooperative sigmoidal transition”.

In the case of “H-OEE-ATA-TAT-TGG-CTG-ATC-CAA-TAT-AT-EEK-NH2 [P4N]”, the “Tm, melting M” value [2, 3] was 82.1 °C, the “Tm, reannealing R” value [2, 3] was 82.3 °C and the “Tm, melting M” value [2, 4] was 81.6 °C. The “Tm, reannealing R” value [2, 4] was 81.3 °C, the “Tm, melting M” value [2, 5] was 82.1 °C and the “Tm, reannealing R” value [2, 5] was 82.3 °C. For the same substance, the “Tm, melting M” value [2, 6] was 81.6 °C, the “Tm, reannealing R” value [2, 6] was 81.3 °C and the “Tm, melting M” value [2, 7] was 82.1 °C. For the same substance, the “Tm, reannealing R” value [2, 7] was 81.5 °C, the “Tm, melting M” value [2, 8] was 82.5 °C and the “Tm, melting M” value [2, 9] was 82.1 °C. The “Tm, reannealing R” value [2, 9] was 81.4 °C, the “Tm, melting M” value [2, 10] was 82.1 °C and the “Tm, reannealing R” value [2, 10] was 81.5 °C. For the same substance, the “Tm, melting M” value [2, 11] was 82.0 °C, the “Tm, reannealing R” value [2, 11] was 82.0 °C and the “Tm, melting M” value [2, 12] was 82.0 °C. For the same substance, the “Tm, melting M” value [2, 13] was 82.5 °C, the “Tm, reannealing R” value [2, 13] was 81.1 °C and the “Tm, melting M” value [2, 14] was 84.0 °C. The “Tm, reannealing R” value [2, 14] was 81.6 °C, the “Tm, melting M” value [2, 15] was 82.0 °C and the “Tm, reannealing R” value [2, 15] was 81.1 °C. The “Tm, melting M” value [2, 16] was 82.0 °C, the “Tm, reannealing R” value [2, 16] was 80.1 °C and the “cooperativity of sigmoidal melting transition (normalized absorbance vs. temperature)” value [2] was “only a slightly less cooperative a transition as compared with probe P3N”.

For “H-OEE-ATA-TAT-TGG-OO-CCA-ATA-TAT-EEK-NH2 [P3N]”, the “Tm, melting M” value [2, 3] was 83.1 °C, the “Tm, reannealing R” value [2, 3] was 82.9 °C and the “Tm, melting M” value [2, 4] was 83.1 °C. The “Tm, reannealing R” value [2, 4] was 82.4 °C, the “Tm, melting M” value [2, 5] was 83.1 °C and the “Tm, reannealing R” value [2, 5] was 81.4 °C. The “Tm, melting M” value [2, 6] was 83.1 °C, the “Tm, reannealing R” value [2, 6] was 81.9 °C and the “Tm, melting M” value [2, 7] was 82.5 °C. For the same substance, the “Tm, reannealing R” value [2, 7] was 82.4 °C, the “Tm, melting M” value [2, 8] was 83.5 °C and the “Tm, reannealing R” value [2, 8] was 82.9 °C. The “Tm, melting M” value [2, 9] was 83.0 °C, the “Tm, reannealing R” value [2, 9] was 82.5 °C and the “Tm, melting M” value [2, 10] was 83.0 °C. For the same substance, the “Tm, reannealing R” value [2, 10] was 82.4 °C, the “Tm, melting M” value [2, 11] was 83.5 °C and the “Tm, reannealing R” value [2, 11] was 83.0 °C. The “Tm, melting M” value [2, 12] was 83.0 °C, the “Tm, reannealing R” value [2, 12] was 83.1 °C and the “Tm, melting M” value [2, 13] was 83.0 °C. The “Tm, reannealing R” value [2, 13] was 82.5 °C, the “Tm, melting M” value [2, 14] was 83.5 °C and the “Tm, reannealing R” value [2, 14] was 83.1 °C. For the same substance, the “Tm, melting M” value [2, 15] was 83.0 °C, the “Tm, reannealing R” value [2, 15] was 82.6 °C and the “Tm, melting M” value [2, 16] was 83.0 °C. The “Tm, reannealing R” value [2, 16] was 82.6 °C and the “cooperativity of sigmoidal melting transition (normalized absorbance vs. temperature)” value [2] was “most cooperative sigmoidal transition”.
